The results in this text go back to patent US9334264B2, “NAMPT inhibitors” (AbbVie Inc., priority 2012, dated 2016).

One assay addresses NAMPT (Homo sapiens, UniProt P43490). In words: Time-Resolved Fluorescence Resonance Energy Transfer (TR-FRET) Binding Assay of NAMPT with PRPP. As to conditions: 200 μM PRPP and 2.5 mM ATP; 2 nM NAMPT, 2 nM probe, equilibrated 16 hours. An outline of the steps:
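Binding was measured by TR-FRET with 2 nM NAMPT, 2 nM probe and 1 nM Tb-anti-His antibody in the presence of 200 μM PRPP and 2.5 mM ATP, with 2% DMSO. Equilibration lasted 16 h before reading, allowing possible enzymatic modification of compounds.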

The target of assay [1] is NAMPT (human, recombinant, C-terminally His-tagged) (Homo sapiens, UniProt P43490). In words: Time-Resolved Fluorescence Resonance Energy Transfer (TR-FRET) Binding Assay of NAMPT. As to conditions: absence of substrates; 6.8 nM NAMPT, 200 nM probe, equilibrated 3 hours. An outline of the steps:
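Displacement of 200 nM Oregon Green-labelled nicotinamide-competitive probe from 6.8 nM His-tagged NAMPT, detected with 1 nM Tb-anti-His; HEPES pH 7.5, 2% DMSO, 3 h room temperature. Em520/Em495 ratios normalized and fit four-parameter logistic for IC50.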
(In general: Time-resolved FRET reads energy transfer from a long-lived donor to a nearby acceptor.)

NAMPT, sequence (P43490 whole entry): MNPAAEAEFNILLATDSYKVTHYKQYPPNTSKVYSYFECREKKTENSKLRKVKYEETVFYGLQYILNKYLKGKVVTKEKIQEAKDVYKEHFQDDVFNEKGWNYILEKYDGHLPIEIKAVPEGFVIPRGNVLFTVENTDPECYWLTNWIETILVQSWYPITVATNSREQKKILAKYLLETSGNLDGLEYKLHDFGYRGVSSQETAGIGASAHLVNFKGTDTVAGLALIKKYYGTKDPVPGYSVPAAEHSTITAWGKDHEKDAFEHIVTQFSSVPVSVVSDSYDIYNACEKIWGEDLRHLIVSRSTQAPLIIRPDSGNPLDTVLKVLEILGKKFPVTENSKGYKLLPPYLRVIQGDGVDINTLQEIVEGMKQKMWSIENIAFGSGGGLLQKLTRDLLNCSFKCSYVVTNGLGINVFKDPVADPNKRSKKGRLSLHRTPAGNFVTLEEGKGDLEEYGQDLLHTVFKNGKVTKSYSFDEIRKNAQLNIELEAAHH
NAMPT (human, recombinant, C-terminally His-tagged), sequence (P43490 whole entry): as above

One may read the IC50 as the concentration that gives 50% inhibition. As for `O=C(NCCCn1ccnc1)c1cnc(N(Cc2ccc(F)cc2)C(=O)NC2CCOC2)s1` (stereo not drawn) [Example 91, 2-[(4-fluorobenzyl)(tetrahydrofuran-3-ylcarbamoyl)amino]-N-[3-(1H-imidazol-1-yl)propyl]-1,3-thiazole-5-carboxamide], the IC50 on NAMPT came out at 0.543 nM; in assay [1] it was 8690 nM.
For `O=C(NCCCn1ccnc1)c1cnc(N(Cc2ccc(F)cc2)C(=O)NC2CCCOC2)s1` (stereo not drawn) [Example 92, 2-[(4-fluorobenzyl)(tetrahydro-2H-pyran-3-ylcarbamoyl)amino]-N-[3-(1H-imidazol-1-yl)propyl]-1,3-thiazole-5-carboxamide] the same measures were 0.868 nM and > 10000 nM.
For `COCCC(=O)N(Cc1ncccn1)c1ncc(C(=O)NCCCn2ccnc2)s1` [Example 93, N-[3-(1H-imidazol-1-yl)propyl]-2-[(3-methoxypropanoyl)(pyrimidin-2-ylmethyl)amino]-1,3-thiazole-5-carboxamide] the same measures were 16.6 nM and > 10000 nM.
For `COCCC(=O)N(Cc1ccnc(OC)c1)c1ncc(C(=O)NCCCn2ccnc2)s1` [Example 94, N-[3-(1H-imidazol-1-yl)propyl]-2-{(3-methoxypropanoyl)[(2-methoxypyridin-4-yl)methyl]amino}-1,3-thiazole-5-carboxamide] the same measures were 1.22 nM and 2870 nM.
On to `COCCC(=O)N(Cc1cocn1)c1ncc(C(=O)NCCCn2ccnc2)s1` [Example 95, N-[3-(1H-imidazol-1-yl)propyl]-2-[(3-methoxypropanoyl)(1,3-oxazol-4-ylmethyl)amino]-1,3-thiazole-5-carboxamide], for which the half-maximal inhibitory concentration (IC50) on NAMPT amounted to 15.1 nM; in assay [1], 3890 nM.
For `COCCC(=O)N(Cc1ccc(Cl)cn1)c1ncc(C(=O)NCCCn2ccnc2)s1` [Example 96, 2-{[(5-chloropyridin-2-yl)methyl](3-methoxypropanoyl)amino}-N-[3-(1H-imidazol-1-yl)propyl]-1,3-thiazole-5-carboxamide] the same measures were 3.35 nM and 4190 nM.
For `COCCC(=O)N(Cc1cnccc1C)c1ncc(C(=O)NCCCn2ccnc2)s1` [Example 97, N-[3-(1H-imidazol-1-yl)propyl]-2-{(3-methoxypropanoyl)[(4-methylpyridin-3-yl)methyl]amino}-1,3-thiazole-5-carboxamide] the same measures were 5.89 nM and > 10000 nM.
For `COCCC(=O)N(Cc1ccc(OC)nc1)c1ncc(C(=O)NCCCn2ccnc2)s1` [Example 98, N-[3-(1H-imidazol-1-yl)propyl]-2-{(3-methoxypropanoyl)[(6-methoxypyridin-3-yl)methyl]amino}-1,3-thiazole-5-carboxamide] the same measures were 1.47 nM and 1500 nM.
As for `COCCC(=O)N(Cc1scnc1C)c1ncc(C(=O)NCCCn2ccnc2)s1` [Example 99, N-[3-(1H-imidazol-1-yl)propyl]-2-{(3-methoxypropanoyl)[(4-methyl-1,3-thiazol-5-yl)methyl]amino}-1,3-thiazole-5-carboxamide], the values for the IC50 (on NAMPT; in assay [1]) were 1.5 nM and 3560 nM, respectively.
For `COCCC(=O)N(CCc1ccccn1)c1ncc(C(=O)NCCCn2ccnc2)s1` [Example 101, N-[3-(1H-imidazol-1-yl)propyl]-2-{(3-methoxypropanoyl)[2-(pyridin-2-yl)ethyl]amino}-1,3-thiazole-5-carboxamide acetate (1:1)] the same measures were 2.84 nM and 5620 nM.
For `COCCC(=O)N(CCc1ccc2c(c1)OCO2)c1ncc(C(=O)NCCCn2ccnc2)s1` [Example 102, 2-{[2-(1,3-benzodioxol-5-yl)ethyl](3-methoxypropanoyl)amino}-N-[3-(1H-imidazol-1-yl)propyl]-1,3-thiazole-5-carboxamide acetate (1:1)] the same measures were 2.16 nM and 306 nM.
On to `COCCC(=O)N(CCc1ccc(Cl)cc1)c1ncc(C(=O)NCCCn2ccnc2)s1` [Example 103, 2-{[2-(4-chlorophenyl)ethyl](3-methoxypropanoyl)amino}-N-[3-(1H-imidazol-1-yl)propyl]-1,3-thiazole-5-carboxamide acetate (1:1)], for which the IC50 was found to be 3.06 nM at NAMPT and 709 nM in assay [1].
For `COCCC(=O)N(CCc1cccc(F)c1)c1ncc(C(=O)NCCCn2ccnc2)s1` [Example 104, 2-{[2-(3-fluorophenyl)ethyl](3-methoxypropanoyl)amino}-N-[3-(1H-imidazol-1-yl)propyl]-1,3-thiazole-5-carboxamide acetate (1:1)] the same measures were 1.31 nM and 445 nM.
For `COCCC(=O)N(CCc1cccc(Cl)c1)c1ncc(C(=O)NCCCn2ccnc2)s1` [Example 106, 2-{[2-(3-chlorophenyl)ethyl](3-methoxypropanoyl)amino}-N-[3-(1H-imidazol-1-yl)propyl]-1,3-thiazole-5-carboxamide acetate (1:1)] the same measures were 1.8 nM and 1930 nM.
For `COCCC(=O)N(CCc1cccc(OC)c1)c1ncc(C(=O)NCCCn2ccnc2)s1` [Example 107, N-[3-(1H-imidazol-1-yl)propyl]-2-{[2-(3-methoxyphenyl)ethyl](3-methoxypropanoyl)amino}-1,3-thiazole-5-carboxamide acetate (1:1)] the same measures were 2.24 nM and 814 nM.
For the molecule `COCCC(=O)N(CCc1ccccc1F)c1ncc(C(=O)NCCCn2ccnc2)s1` [Example 108, 2-{[2-(2-fluorophenyl)ethyl](3-methoxypropanoyl)amino}-N-[3-(1H-imidazol-1-yl)propyl]-1,3-thiazole-5-carboxamide acetate (1:1)], the IC50 came to 1.61 nM on NAMPT and 1450 nM in assay [1].
Take `COCCC(=O)N(CC(O)c1ccc(OC)cc1)c1ncc(C(=O)NCCCn2ccnc2)s1` (stereo not drawn) [Example 109, 2-{[2-hydroxy-2-(4-methoxyphenyl)ethyl](3-methoxypropanoyl)amino}-N-[3-(1H-imidazol-1-yl)propyl]-1,3-thiazole-5-carboxamide acetate (1:1)]: the half-inhibitory concentration (IC50) at NAMPT is 3.74 nM; in assay [1] it was > 10000 nM.
As to `COCCC(=O)N(c1ncc(C(=O)NCCCn2ccnc2)s1)C(C)c1ccccn1` (stereo not drawn) [Example 110, N-[3-(1H-imidazol-1-yl)propyl]-2-{(3-methoxypropanoyl)[1-(pyridin-2-yl)ethyl]amino}-1,3-thiazole-5-carboxamide], the figures for the IC50 (on NAMPT; in assay [1]) were 23.2 nM and > 10000 nM, respectively.
For `COCCC(=O)N(Cc1cnn(C)c1)c1ncc(C(=O)NCCCn2ccnc2)s1` [Example 111, N-[3-(1H-imidazol-1-yl)propyl]-2-{(3-methoxypropanoyl)[(1-methyl-1H-pyrazol-4-yl)methyl]amino}-1,3-thiazole-5-carboxamide] the same measures were 5.87 nM and > 10000 nM.
For `COCCC(=O)N(Cc1c(F)cccc1F)c1ncc(C(=O)NCCCn2ccnc2)s1` [Example 112, 2-[(2,6-difluorobenzyl)(3-methoxypropanoyl)amino]-N-[3-(1H-imidazol-1-yl)propyl]-1,3-thiazole-5-carboxamide] the same measures were 2.08 nM and 3680 nM.
On to `COCCC(=O)N(Cc1ccc(C)nc1)c1ncc(C(=O)NCCCn2ccnc2)s1` [Example 113, N-[3-(1H-imidazol-1-yl)propyl]-2-{(3-methoxypropanoyl)[(6-methylpyridin-3-yl)methyl]amino}-1,3-thiazole-5-carboxamide], for which the IC50 on NAMPT amounted to 6.76 nM; in assay [1], 4990 nM.
For `COCCC(=O)N(Cc1ccc(Cl)cc1)c1ncc(C(=O)NCCCn2ccnc2)s1` [Example 114, 2-[(4-chlorobenzyl)(3-methoxypropanoyl)amino]-N-[3-(1H-imidazol-1-yl)propyl]-1,3-thiazole-5-carboxamide] the same measures were 2.31 nM and 1990 nM.
As to `COCCC(=O)N(Cc1cnc(C)cn1)c1ncc(C(=O)NCCCn2ccnc2)s1` [Example 115, N-[3-(1H-imidazol-1-yl)propyl]-2-{(3-methoxypropanoyl)[(5-methylpyrazin-2-yl)methyl]amino}-1,3-thiazole-5-carboxamide], the concentration for half-maximal inhibition (IC50) on NAMPT turned out to be 3.6 nM; in assay [1], 1420 nM.
Take `COCCC(=O)N(Cc1ccc(C)cn1)c1ncc(C(=O)NCCCn2ccnc2)s1` [Example 117, N-[3-(1H-imidazol-1-yl)propyl]-2-{(3-methoxypropanoyl)[(5-methylpyridin-2-yl)methyl]amino}-1,3-thiazole-5-carboxamide]: the values for the IC50 (on NAMPT; in assay [1]) were 3.02 nM and 1250 nM, respectively.
For `COCCC(=O)N(Cc1ccccc1C)c1ncc(C(=O)NCCCn2ccnc2)s1` [Example 119, N-[3-(1H-imidazol-1-yl)propyl]-2-[(3-methoxypropanoyl)(2-methylbenzyl)amino]-1,3-thiazole-5-carboxamide] the same measures were 1.89 nM and 4570 nM.
Regarding `COCCC(=O)N(Cc1cccc(C)c1)c1ncc(C(=O)NCCCn2ccnc2)s1` [Example 120, N-[3-(1H-imidazol-1-yl)propyl]-2-[(3-methoxypropanoyl)(3-methylbenzyl)amino]-1,3-thiazole-5-carboxamide], the values for the IC50 (at NAMPT; in assay [1]) were 2.29 nM and 3780 nM, respectively.
For `COCCC(=O)N(Cc1ccccn1)c1ncc(C(=O)NCCCn2ccnc2)s1` [Example 121, N-[3-(1H-imidazol-1-yl)propyl]-2-[(3-methoxypropanoyl)(pyridin-2-ylmethyl)amino]-1,3-thiazole-5-carboxamide] the same measures were 9.25 nM and > 10000 nM.
